Results as given in PMC12165043, “Neophytadiene, a Plant Specialized Metabolite, Mediates the Virus‐Vector‐Plant Tripartite Interactions” (Advanced Science, 2025).
Several values for one entry are separate records, joined by “and”; a condition that tells them apart may be missing. Identical values can stand only once.

What was measured:
Trialeurode vaporariorum = tested on: Trialeurode vaporariorum; set-up: method as in PMID 35244166; settings: ref [47]; cited from earlier work
BtOBP2 [1] = biological target: T1, BtOBP2 (Bemisia tabaci, UniProt A0A097BTY7); assay: Fluorescence binding of the probe 1-NPN to recombinant BtOBP2; settings: recombinant BtOBP2 2 µM, Scatchard analysis; read-out: binding constant (Kd) of 1-NPN to BtOBP2
T1 sequence (A0A097BTY7 23-247): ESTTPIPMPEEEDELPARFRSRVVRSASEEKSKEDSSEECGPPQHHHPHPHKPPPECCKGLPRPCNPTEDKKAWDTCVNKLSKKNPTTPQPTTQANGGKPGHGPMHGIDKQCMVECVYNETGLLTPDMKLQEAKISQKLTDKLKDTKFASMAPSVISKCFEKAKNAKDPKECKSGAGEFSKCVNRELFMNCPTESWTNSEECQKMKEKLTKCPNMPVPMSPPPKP
Text: The specific primers for BtOBP2 were designed using Primer 5 software to amplify the coding sequence according to the Phanta Max Super‐Fidelity DNA Polymerase protocol. Target DNA fragments were purified and ligated into the pEASY‐Blunt cloning vector, and positive colonies were identified by PCR and sequenced. The cloned plasmid was ligated into the pET28a vector (Invitrogen, Waltham USA) following digestion with BamHI and SalI. The resulting construct was transformed into Rosetta (DE3) Escherichia coli competent cells. […] The target protein was verified by 10% SDS‐PAGE, and its concentration was determined with a BCA protein assay kit. […] The target protein was subjected to Coomassie blue staining and western blot validation through 10% SDS‐PAGE using anti His‐Tag antibody, and its concentration was determined using a BCA protein assay kit. […]
The binding affinity of BtOBP2 to the fluorescent probe N‐phenyl‐1‐naphthyl‐amine (1‐NPN1) was determined using a FL7000 fluorescence spectrophotometer (Hitachi, Tokyo Japan). […] The optimal excitation and emission wavelengths of the recombinant protein BtOBP2 were determined, and the 1‐NPN/BtOBP2 mixture was excited at 220 nm with emission spectra recorded from 300 to 500 nm. The binding constants (Kd) of BtOBP2 to 1‐NPN were calculated by Scatchard analysis using Prism 5 software. […]

TYLCV = tested on: TYLCV; set-up: method as in PMID 36086899; settings: ref [48]; cited from earlier work
[2] = tested on: Bemisia tabaci whiteflies; assay: Y-tube olfactory choice assay, volatile standard versus solvent control; type: in vivo; settings: for Whitefly preference for plant volatiles versus control (solvent only): number of whiteflies in the volatile arm: Fig 1F raw data, individual replicates (n = 9), 100 whiteflies released, counted for 20 min; for impact of volatile on whitefly preference: Y-tube, volatile standard versus solvent control, n = 9, result in words
Experimental: Y‐tube preference assays were conducted as per Shi et al.^[ [51] ^] with an air flow of 100 mL min^−1. A volatile standard (Sigma Aldrich, USA) and control (solvent) were placed in glass containers at either end of the Y‐tube and 100 whiteflies were released at the Y‐tube base. The number of whiteflies moving more than 5 cm into the Y‐tube arm and remaining there for at least 15 s was counted for 20 min. There were nine replicates per volatile for each of the eight volatile compounds.

[3] = tested on: Bemisia tabaci whiteflies; assay: Whitefly preference for neophytadiene after RNA interference (dsGFP, dsBtOBP2, dsOBP3); settings: for preference (whiteflies choosing Neophytadiene): Neophytadiene versus CK, single replicates; for preference (whiteflies choosing Neophytadiene) / preference (whiteflies choosing Neophytadiene), mean: Fig 7D; for preference (whiteflies choosing Neophytadiene), mean: unlabelled last row = mean of the 9 replicates
whiteflies = tested on: whiteflies; set-up: method as in PMID 31842757; settings: ref [18]; cited from earlier work
[4] = tested on: Bemisia tabaci whiteflies; assay: Whole-plant preference test, OELhca4 tomato plants sprayed with neophytadiene or water; type: in vivo
Experimental: Tests were conducted as per Shi et al.^[ [49] ^] with slight modifications. ToCV‐infected or control (mock‐inoculated) tomato plants were used for preference tests in screened cages. A second set of preference tests was also conducted using OELhca4 (Lhca4 overexpressed) tomato plants sprayed either with neophytadiene (3 µg g^−1 in water) or water only (control). Each cage contained two plants placed 40 cm apart. Under dim light, about 100 whiteflies that had been starved for 2 h were released above the center of the two plants and the whiteflies on each plant counted after 48 h. Each of the two preference tests (ToCV‐infected versus uninfected plants; OELhca4 plants sprayed with either neophytadiene or water) was replicated nine times.

BtOBP1-8 genes = assay: Transcriptional response of BtOBP1-8 to neophytadiene (qRT-PCR); type: in vivo, Bemisia tabaci
Experimental: RNA was extracted using trizol reagent (Invitrogen, Waltham USA) and dissolved in double‐deionized water; cDNA was synthesized from total RNA (1 µg) using HiScript 1st Strand cDNA Synthesis kit (Vazyme, Nanjing China). Real‐time qPCR was conducted using the MonAmp SYBR Green qPCR Mix (Thermofisher, Waltham USA). Actin and UBI were selected as the housekeeping genes (Table S1, Supporting Information). Each experiment was repeated at least three times and relative gene expression levels calculated for analysis using the 2^−∆∆Ct method.
To investigate the expression profiles of BtOBP1‐8 genes in B. tabaci under neophytadiene treatment, the following experiment was performed. Tomato plants with an identical growth cycle were selected as the treatment group (sprayed with 3 µg g^−1 neophytadiene) and the control group (treated with water only). The treated plants were then placed in a 10 L hermetic container. Once the volatilization reached equilibrium, 500 pairs of adults were introduced into the closed container and fumigated under airtight conditions. Subsequently, the whiteflies were sampled at distinct time points (0, 24, 48, 72, 96 h) respectively for the determination of expression levels.

BtOBP2 [5] = biological target: T1, BtOBP2; assay: Fluorescence competitive binding assay (displacement of 1-NPN from BtOBP2); settings: mean ± SEM; for IC50: BtOBP2 2 µM, ligand 2 to 20 µM, read-out: IC50, ligand concentration displacing 50% of the fluorescence intensity of the BtOBP2/1-NPN complex; for Ki: Ki = [IC50]/(1 + [1-NPN]/K1-NPN), read-out: Ki, dissociation constant
Text: The specific primers for BtOBP2 were designed using Primer 5 software to amplify the coding sequence according to the Phanta Max Super‐Fidelity DNA Polymerase protocol. Target DNA fragments were purified and ligated into the pEASY‐Blunt cloning vector, and positive colonies were identified by PCR and sequenced. The cloned plasmid was ligated into the pET28a vector (Invitrogen, Waltham USA) following digestion with BamHI and SalI. The resulting construct was transformed into Rosetta (DE3) Escherichia coli competent cells. When the OD600 of the recombinant BtOBP2 reached 0.6 to 0.8, induction was initiated by adding isopropyl‐β‐D‐1‐thiogalactopyranoside (IPTG) (1 mM) at 16 °C for 16 h, followed by purification using the Ni‐NTA purification system.^[ [59] ^] The target protein was verified by 10% SDS‐PAGE, and its concentration was determined with a BCA protein assay kit. The recombinant purified protein was stored at −80 °C until use. The target protein was subjected to Coomassie blue staining and western blot validation through 10% SDS‐PAGE using anti His‐Tag antibody, and its concentration was determined using a BCA protein assay kit. The purified recombinant protein was stored at −80 °C.
The binding affinity of BtOBP2 to the fluorescent probe N‐phenyl‐1‐naphthyl‐amine (1‐NPN1) was determined using a FL7000 fluorescence spectrophotometer (Hitachi, Tokyo Japan). Ligands and 1‐NPN were dissolved in HPLC‐grade methanol to a concentration of 1 mM, and then titrated with BtOBP2 (2 µM) to final concentrations ranging from 2 to 20 µM.^[ [60] ^] The optimal excitation and emission wavelengths of the recombinant protein BtOBP2 were determined, and the 1‐NPN/BtOBP2 mixture was excited at 220 nm with emission spectra recorded from 300 to 500 nm. The binding constants (Kd) of BtOBP2 to 1‐NPN were calculated by Scatchard analysis using Prism 5 software. The IC50 represents the concentration at which 50% of the probe was displaced by the ligand. The Ki values were calculated according to the following equation: Ki = [IC50]/(1 + [1‐NPN]/K1‐NPN), where [1‐NPN] is the free concentration of 1‐NPN, and K1‐NPN is the Kd of the 1‐NPN/BtOBP2 complex.^[ [61] ^]

## CC12CCC(CC1)C(C)(C)O2 [1, 8‐cineole]
Trialeurode vaporariorum
  effect on settling of whitefly on an otherwise-preferred tomato cultivar: repelled

## c1ccc(Nc2cccc3ccccc23)cc1 [1‐NPN, N‐Phenyl‐1‐naphthylamine]
BtOBP2 [1]
  Kd: 2.94 ± 0.08 µM

## CC/C=C\CCO [(Z)‐3‐hexenol]
TYLCV
  effect on tomato defense against infection by whitefly-transmitted TYLCV: improves tomato defense

## C=CC(=C)CCCC(C)CCCC(C)CCCC(C)C (stereo not shown) [Neophytadiene]
[2]
  Whitefly preference for plant volatiles versus control (solvent only): number of whiteflies in the volatile arm: 86 and 89 and 65 and 80 and 52 and 100 and 48
  impact of volatile on whitefly preference: attracted B. tabaci
[3]; after RNA interference of BtOBP2, n = 9
  preference for neophytadiene of BtOBP2-silenced (dsOBP2) whiteflies: no preference
[3]; after RNA interference of BtOBP3, n = 9
  preference for neophytadiene of BtOBP3-silenced (dsOBP3) whiteflies: still exhibited preference
[3]; dsGFP-treated whiteflies
  preference (whiteflies choosing Neophytadiene): 95 and 86 and 80 and 93 and 85 and 88 and 79 and 90
  preference (whiteflies choosing Neophytadiene), mean: 87.6667
[3]; dsOBP2-treated whiteflies
  preference (whiteflies choosing Neophytadiene): 36 and 41 and 48 and 46 and 42 and 58 and 59 and 45
  preference (whiteflies choosing Neophytadiene), mean: 46.3333
whiteflies
  attraction of whiteflies: highly attractive to whiteflies
[4]; OELhca4+Neophytadiene versus OELhca4, Fig 5J, single replicates
  preference (whiteflies on plant): 80 and 70 and 78 and 72 and 60 and 66 and 76 and 73
[4]; neophytadiene 3 µg g^−1 in water, whiteflies counted after 48 h, n = 9
  Whitefly preference for neophytadiene-sprayed versus water-sprayed OELhca4 plants: attracted more whiteflies
BtOBP1-8 genes; 24h, Fig 7A
  OBP1 relative expression: 1.5096 and 1.0333 and 1.7792
  OBP2 relative expression: 2.314 and 1.938 and 1.255
  OBP3 relative expression: 2.295 and 2.274 and 2.135
  OBP4 relative expression: 1.915 and 1.067 and 1.378
  OBP5 relative expression: 0.9141 and 1.109 and 1.357
  OBP7 relative expression: 0.4368 and 0.5508 and 0.2972
BtOBP1-8 genes; 48h, Fig 7A
  OBP1 relative expression: 0.9445 and 0.6245 and 1.003
  OBP2 relative expression: 3.877 and 2.855 and 4.158
  OBP3 relative expression: 2.98 and 1.807 and 1.705
  OBP4 relative expression: 1.105 and 0.8073 and 0.7508
  OBP7 relative expression: 0.7647 and 0.5685 and 0.6675
BtOBP1-8 genes; 72h, Fig 7A
  OBP4 relative expression: 0.7926 and 1.238 and 0.8444
  OBP6 relative expression: 0.6207 and 0.9359 and 1.164
BtOBP1-8 genes; 96h, Fig 7A
  OBP3 relative expression: 2.791 and 2.514 and 4.498
  OBP4 relative expression: 1.221 and 0.8392 and 1.362
  OBP6 relative expression: 0.4452 and 0.8016 and 0.4814
  OBP7 relative expression: 0.7369 and 0.9206 and 0.9224
  OBP8 relative expression: 0.9529 and 0.9384 and 0.8486
BtOBP1-8 genes; continuous release for 96 h, measured every 24 h
  relative gene expression of BtOBP1-8 following neophytadiene exposure: Only two genes, BtOBP2 and BtOBP3, increased their expression over time
BtOBP2 [5]
  IC50: 7.95 ± 0.45 µM

## C=C(C)[C@H]1CC=C(C)CC1 [limonene]
Trialeurode vaporariorum
  effect on settling of whitefly on an otherwise-preferred tomato cultivar: repelled

## CC1=CCC2CC1C2(C)C (stereo not drawn) [α‐pinene]
[2]
  Whitefly preference for plant volatiles versus control (solvent only): number of whiteflies in the volatile arm: 23 and 24 and 30 and 26 and 17 and 40 and 21 and 6 and 43
  impact of volatile on whitefly preference: significantly repelled whiteflies
BtOBP2 [5]
  IC50: 14.6 ± 0.57 µM
  Ki: 10.9 ± 0.43 µM

## CC1=CC=C(C(C)C)CC1 [α‐terpinene]
[2]
  Whitefly preference for plant volatiles versus control (solvent only): number of whiteflies in the volatile arm: 9 and 19 and 28 and 37 and 36 and 43
  impact of volatile on whitefly preference: significantly repelled whiteflies
BtOBP2 [5]
  IC50: 20.4 ± 1.29 µM
  Ki: 15.2 ± 0.96 µM

## C=C1CC/C=C(\C)CC[C@@H]2[C@@H]1CC2(C)C [β‐caryophyllene]
[2]
  Whitefly preference for plant volatiles versus control (solvent only): number of whiteflies in the volatile arm: 41 and 20 and 16 and 6 and 19 and 27 and 31 and 10 and 39
  impact of volatile on whitefly preference: significantly repelled whiteflies
BtOBP2 [5]
  IC50: 14.2 ± 0.72 µM
  Ki: 10.6 ± 0.54 µM

## C=C1C=CC(C(C)C)CC1 (stereo not drawn) [β‐phellandrene]
[2]
  Whitefly preference for plant volatiles versus control (solvent only): number of whiteflies in the volatile arm: 34 and 28 and 40 and 32 and 46 and 20 and 36 and 43 and 14
  impact of volatile on whitefly preference: significantly repelled whiteflies
BtOBP2 [5]
  IC50: 25.4 ± 3.39 µM
  Ki: 19 ± 2.53 µM

## C=C1CCC2CC1C2(C)C (stereo not drawn) [β‐pinene]
[2]
  Whitefly preference for plant volatiles versus control (solvent only): number of whiteflies in the volatile arm: 12 and 26 and 37 and 29 and 28 and 24 and 10 and 31 and 15
  impact of volatile on whitefly preference: significantly repelled whiteflies
BtOBP2 [5]
  IC50: 13.7 ± 0.51 µM
  Ki: 10.2 ± 0.38 µM

## Cc1ccc(C(C)C)cc1 [ρ‐cymene]
[2]
  Whitefly preference for plant volatiles versus control (solvent only): number of whiteflies in the volatile arm: 10 and 20 and 17 and 26 and 18 and 25 and 27 and 23
  impact of volatile on whitefly preference: significantly repelled whiteflies
Trialeurode vaporariorum
  effect on settling of whitefly on an otherwise-preferred tomato cultivar: repelled
BtOBP2 [5]
  IC50: 16.3 ± 0.49 µM
  Ki: 12.1 ± 0.36 µM

## phytol
[2]
  Whitefly preference for plant volatiles versus control (solvent only): number of whiteflies in the volatile arm: 58 and 50 and 60 and 24 and 48 and 27 and 44 and 38
  impact of volatile on whitefly preference: did not influence whitefly preference
BtOBP2 [5]
  IC50: 26.1 ± 1.48 µM
  Ki: 19.5 ± 1.1 µM
